Assays:
Assay type in all cases: in vivo, human
[1] = system: participants with migraine (qualifying prodrome events); assay: Phase 3 crossover study: ability to function normally (Functional Disability Scale); conditions: 100 mg in prodrome, mITT
Method: (§1) A phase 3, multicenter, randomized, double-blind, placebo-controlled, crossover study was carried out to evaluate the efficacy, safety, and tolerability of oral ubrogepant in the acute treatment of migraine when administered during the prodrome. The study evaluated whether treatment during the initial phase of a migraine attack (i.e., the prodrome or premonitory phase) prior to the onset of headache, can attenuate the severity of the headache phase and reduce disability.
(§2) Eligible participants were randomized (1:1) to treatment sequences A or B in this crossover study. Participants randomized to Treatment Sequence A received placebo to treat their first qualifying prodrome event and ubrogepant 100 mg to treat their second qualifying prodrome event. For those randomized to Treatment Sequence B, they received the reverse: ubrogepant 100 mg to treat their first qualifying prodrome event and placebo to treat their second qualifying prodrome event.
The primary efficacy endpoint was the absence of a headache of moderate/severe intensity within 24 hours after taking double-blind study intervention during the prodrome. The secondary efficacy endpoints were the absence of a headache of moderate or severe intensity within 48 hours, ability to function normally over 24 hours, and absence of a headache of any intensity within 24 hours after taking double blind study interventions during the prodrome.
A responder for ability to function normally is a participant having a score of 0 (no disability, able to function normally) on the Functional Disability Scale (FDS), and a non-responder is one having a score of 1 (Mildly impaired, can still do everything but with difficulty) to 3 (Severely impaired, cannot do all or most things, bed rest may be necessary).

[2] = system: participants with migraine (qualifying prodrome events); assay: Phase 3 crossover study: activity limitation at 24 hours; conditions: 100 mg in prodrome, at 24 hours post-dose
Method: as §1, §2

[3] = system: participants with migraine (qualifying prodrome events); assay: Phase 3 crossover study: satisfaction with study medication; conditions: 100 mg in prodrome
Method: as §1, §2

[4] = system: participants with migraine (qualifying prodrome events); assay: Phase 3 crossover study: absence of aura at timepoints post dose; conditions: 100 mg in prodrome, mITT
Method: as §1, §2
N1 is the number of patients with non-missing aura presence assessment at timepoint.

[5] = system: participants with migraine (qualifying prodrome events); assay: Phase 3 crossover study: safety and tolerability, adverse events (safety population)
Method: as §1, §2
Participant flow is illustrated in FIG. 2. The safety population included all treated participants who took at least one administration of study drug. The modified intent-to-treat (mITT) population included all randomized participants with at least one assessment of headache occurrence within 24 hours after taking double-blind study drug for at least one qualifying prodrome event. The most common reasons for failure to meet inclusion criteria were: lack of 3 to 16 recorded qualifying prodrome events during screening (144 of 317), failure to report headache of any intensity within 1 to 6 hours following at least 75% of qualifying prodrome events (123 of 317), and participant provided a negative response for the ability (by history) to identify migraine attacks in which prodromal symptoms were present and reliably (at least 75% of the time) followed by headache within 1 to 6 hours (23 of 317
Tables 20 and 21 provide an overall summary of adverse events during the double-blind treatment period for the safety population.
The most common TEAEs (≥2% in either treatment group) within 48 hours following administration of study intervention were nausea (placebo 15 of 462 [3.2%], ubrogepant 23 of 456 [5.0%]); dizziness (placebo 12 of 462 [2.6%], ubrogepant 11 of 456 [2.4%]), fatigue (placebo 7 of 462 [1.5%], ubrogepant 12 of 456 [2.6%]) and somnolence (placebo 5 of 462 [1.1%], ubrogepant 11 of 456 [2.4%]). Nausea (placebo 3.7%, ubrogepant 5.3%) was also the most common TEAE within 30 days following administration of study intervention.

[6] = 100 mg, within 48 hours following administration
[7] = 100 mg, within 48 hours following administration, safety population
[8] = ubrogepant 100 mg (N = 456), within 48 hours following administration, safety population
[9] = ubrogepant 100 mg (N = 456), within 30 days following administration, safety population

C[C@@H]1[C@H](c2ccccc2)C[C@H](NC(=O)c2cnc3c(c2)C[C@@]2(C3)C(=O)Nc3ncccc32)C(=O)N1CC(F)(F)F [Ubrogepant, (3′S)—N-((3S,5S,6R)-6-methyl-2-oxo-5-phenyl-1-(2,2,2-trifluoroethyl)piperidin-3-yl)-2′-oxo-1′,2′,5,7-tetrahydrospiro[cyclopenta[b]pyridine-6,3′-pyrrolo[2,3-b]pyridine]-3-carboxamide] was tested, and the “Ability to function normally, Nonresponder (%)” value (from here on “Ability … Nonresponder (%)”) ([1]; 1 hour post dose) was “(74.4) %”, the “Ability to function normally, Odds Ratio vs. Placebo” value ([1]; 1 hour post dose) was 1.29 and the “Ability to function normally, Responder (%)” value ([1]; 1 hour post dose) was “(25.6) %”. The “Ability … Nonresponder (%)” value ([1]; 2 hours post dose) was “(63.0) %”, the “Ability to function normally, Odds Ratio vs. Placebo” value ([1]; 2 hours post dose) was 1.73 and the “Ability to function normally, Responder (%)” value ([1]; 2 hours post dose) was “(37.0) %”. For the same molecule, the “Ability to function normally, Responder (%)” value ([1]; 2 hours post dose, listed as ubrogepant) was 37.0%, the “Ability … Nonresponder (%)” value ([1]; 3 hours post dose) was “(51.7) %” and the “Ability to function normally, Odds Ratio vs. Placebo” value ([1]; 3 hours post dose) was 1.71. The “Ability to function normally, Responder (%)” value ([1]; 3 hours post dose) was “(48.3) %”, the “Ability … Nonresponder (%)” value ([1]; 4 hours post dose) was “(41.0) %” and the “Ability to function normally, Odds Ratio vs. Placebo” value ([1]; 4 hours post dose) was 1.97. For the same molecule, the “Ability to function normally, Responder (%)” value ([1]; 4 hours post dose) was “(59.0) %”, the “Ability … Nonresponder (%)” value ([1]; 6 hours post dose) was “(32.7) %” and the “Ability to function normally, Odds Ratio vs. Placebo” value ([1]; 6 hours post dose) was 1.78. For the same molecule, the “Ability to function normally, Responder (%)” value ([1]; 6 hours post dose) was “(67.3) %”, the “Ability … Nonresponder (%)” value ([1]; 8 hours post dose) was “(25.0) %” and the “Ability to function normally, Odds Ratio vs. Placebo” value ([1]; 8 hours post dose) was 1.84. The “Ability to function normally, Responder (%)” value ([1]; 8 hours post dose) was “(75.0) %”, the “Ability … Nonresponder (%)” value ([1]; 24 hours post dose) was “(11.1) %” and the “Ability to function normally, Odds Ratio vs. Placebo” value ([1]; 24 hours post dose) was 1.41. For the same molecule, the “Ability to function normally, Responder (%)” value ([1]; 24 hours post dose) was “(88.9) %”, the “Ability to function normally over 24 hours, Geometric Mean Odds Ratio vs. Placebo” value ([1]; overall, all timepoints through 24 hours) was 1.66 and the “Activity limitation, Odds ratio vs placebo” value [2] was 2.07. For the same molecule, the “Activity limitation, Responders (%) (not at all limited or a little limited)” value [2] was “(65.4) %”, the “Activity limitation, Responders (%) (not at all limited or a little limited)” value ([2]; listed as ubrogepant) was 65.4% and the “Satisfaction with study medication, Odds ratio vs placebo” value ([3]; 8 Hours post-dose) was 2.37. The “Satisfaction with study medication, responder rate (%) (satisfied or extremely satisfied)” value ([3]; 8 Hours post-dose) was “(66.0) %”, the “Satisfaction with study medication, Odds ratio vs placebo” value ([3]; 24 Hours post-dose) was 2.32 and the “Satisfaction with study medication, responder rate (%) (satisfied or extremely satisfied)” value ([3]; 24 Hours post-dose) was “(65.6) %”. For the same molecule, the “Satisfaction with study medication, responder rate (%) (satisfied or extremely satisfied)” value ([3]; 24 Hours post-dose, listed as ubrogepant) was 65.6%, the “Absence of aura, Nonresponder (%)” value ([4]; 48 Hours post dose) was “(2.6) %” and the “Absence of aura, OR vs placebo” value ([4]; 48 Hours post dose) was 3.05. For the same molecule, the “Absence of aura, Responder (%)” value ([4]; 48 Hours post dose) was “(97.4) %”, the “Absence of aura, Nonresponder (%)” value ([4]; 1 hour post dose) was “(38.3) %” and the “Absence of aura, OR vs placebo” value ([4]; 1 hour post dose) was 0.99. For the same molecule, the “Absence of aura, Responder (%)” value ([4]; 1 hour post dose) was “(61.7) %”, the “Absence of aura, Nonresponder (%)” value ([4]; 2 hours post dose) was “(28.1) %” and the “Absence of aura, OR vs placebo” value ([4]; 2 hours post dose) was 1.13. For the same molecule, the “Absence of aura, Responder (%)” value ([4]; 2 hours post dose) was “(71.9) %”, the “Absence of aura, Nonresponder (%)” value ([4]; 3 hours post dose) was “(23.0) %” and the “Absence of aura, OR vs placebo” value ([4]; 3 hours post dose) was 0.96. For the same molecule, the “Absence of aura, Responder (%)” value ([4]; 3 hours post dose) was “(77.0) %”, the “Absence of aura, Nonresponder (%)” value ([4]; 4 hours post dose) was “(19.1) %” and the “Absence of aura, OR vs placebo” value ([4]; 4 hours post dose) was 1.12. For the same molecule, the “Absence of aura, Responder (%)” value ([4]; 4 hours post dose) was “(80.9) %”, the “Absence of aura, Nonresponder (%)” value ([4]; 6 hours post dose) was “(15.3) %” and the “Absence of aura, OR vs placebo” value ([4]; 6 hours post dose) was 1.05. For the same molecule, the “Absence of aura, Responder (%)” value ([4]; 6 hours post dose) was “(84.7) %”, the “Absence of aura, Nonresponder (%)” value ([4]; 8 hours post dose) was “(10.5) %” and the “Absence of aura, OR vs placebo” value ([4]; 8 hours post dose) was 1.10. For the same molecule, the “Absence of aura, Responder (%)” value ([4]; 8 hours post dose) was “(89.5) %”, the “Absence of aura, Nonresponder (%)” value ([4]; 24 hours post dose) was “(5.3) %” and the “Absence of aura, OR vs placebo” value ([4]; 24 hours post dose) was 1.48. The “Absence of aura, Responder (%)” value ([4]; 24 hours post dose) was “(94.7) %”, the “Safety results” value ([5]; 100 mg in prodrome) was “generally consistent with the known safety profile of ubrogepant” and the “Tolerability” value ([5]; 100 mg in prodrome) was “well-tolerated”. For the same molecule, the “nausea, fatigue, dizziness, and somnolence, % of participants reporting” value ([5]; 100 mg in prodrome) was at most 5%, the “TEAE dizziness, % of participants” value [5, 6] was 2.4% and the “TEAE fatigue, % of participants” value [5, 6] was 2.6%. The “TEAE nausea, % of participants” value [5, 6] was 5.0%, the “TEAE somnolence, % of participants” value [5, 6] was 2.4% and the “Adverse event leading to discontinuation (ADO), % of participants” value [5, 7] was “(0.0) %”. For the same molecule, the “Death, % of participants” value [5, 7] was “(0.0) %”, the “Treatment-emergent Serious adverse events (TESAE), % of participants” value [5, 7] was “(0.0) %” and the “Treatment-emergent adverse events (TEAE), % of participants” value [5, 7] was “(16.9) %”. The “Treatment-related TEAEs, % of participants” value [5, 7] was “(13.2) %”, the “Treatment-related TESAEs, % of participants” value [5, 7] was “(0.0) %” and the “TEAE nausea, % of participants” value ([5]; 100 mg, within 30 days following administration) was 5.3%. The “Discontinuation during the DB treatment period due to adverse events” value ([5]; safety population) was “No participant was discontinued”, the “TEAE Dizziness, %” value [5, 8] was “(2.4) %” and the “TEAE Fatigue, %” value [5, 8] was “(2.6) %”. For the same molecule, the “TEAE Nausea, %” value [5, 8] was “(5.0) %”, the “TEAE Somnolence, %” value [5, 8] was “(2.4) %” and the “Adverse event leading to discontinuation (ADO), %” value [5, 9] was “(0.0) %”. The “Death, %” value [5, 9] was “(0.0) %”, the “TEAE Dizziness, %” value [5, 9] was “(2.4) %” and the “TEAE Fatigue, %” value [5, 9] was “(2.6) %”. The “TEAE Nausea, %” value [5, 9] was “(5.3) %”, the “TEAE Somnolence, %” value [5, 9] was “(2.4) %” and the “Treatment-emergent Serious adverse events (TESAE), %” value [5, 9] was “(0.0) %”. The “Treatment-emergent adverse events (TEAE), %” value [5, 9] was “(19.7) %”, the “Treatment-related TEAEs, %” value [5, 9] was “(13.2) %” and the “Treatment-related TESAEs, %” value [5, 9] was “(0.0) %”.
